Reference: paper PMC4979471 (Cell Death Discovery, 2015)
Like-named read-outs stand apart in the source and are kept apart here.

What was measured:
Assay in all cases: Kinase selectivity, P33-radiolabeled assay
Assay type in all cases: biochemical
Settings in all cases: 10 μM ATP
MST2/STK3 = target: T1, MST2/STK3 (Homo sapiens, UniProt Q13188)
T1 construct: purchased Reaction Biology Corp
T1 sequence (Q13188 1-491): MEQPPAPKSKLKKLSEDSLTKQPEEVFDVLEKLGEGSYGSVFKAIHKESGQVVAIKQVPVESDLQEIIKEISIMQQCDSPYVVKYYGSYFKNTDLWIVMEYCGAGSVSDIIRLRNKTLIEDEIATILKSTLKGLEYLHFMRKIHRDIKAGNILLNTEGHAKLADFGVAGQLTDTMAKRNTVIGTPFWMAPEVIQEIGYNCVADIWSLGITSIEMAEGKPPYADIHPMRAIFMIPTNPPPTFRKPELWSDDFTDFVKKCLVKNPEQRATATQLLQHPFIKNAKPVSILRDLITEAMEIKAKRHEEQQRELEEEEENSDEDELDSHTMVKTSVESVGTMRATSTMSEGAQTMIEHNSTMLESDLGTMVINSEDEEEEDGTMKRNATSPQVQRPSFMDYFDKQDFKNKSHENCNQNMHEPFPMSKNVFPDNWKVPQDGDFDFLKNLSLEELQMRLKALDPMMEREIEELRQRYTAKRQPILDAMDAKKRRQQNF
Summary of the method: (§1)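 Duplicate single-concentration testing used 10 μM compound. The ATP concentration was also 10 μM.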

ALK1/ACVRL1 = target: T2, ALK1/ACVRL1 (Homo sapiens, UniProt P37023)
T2 construct: purchased Reaction Biology Corp
T2 sequence (P37023 22-503): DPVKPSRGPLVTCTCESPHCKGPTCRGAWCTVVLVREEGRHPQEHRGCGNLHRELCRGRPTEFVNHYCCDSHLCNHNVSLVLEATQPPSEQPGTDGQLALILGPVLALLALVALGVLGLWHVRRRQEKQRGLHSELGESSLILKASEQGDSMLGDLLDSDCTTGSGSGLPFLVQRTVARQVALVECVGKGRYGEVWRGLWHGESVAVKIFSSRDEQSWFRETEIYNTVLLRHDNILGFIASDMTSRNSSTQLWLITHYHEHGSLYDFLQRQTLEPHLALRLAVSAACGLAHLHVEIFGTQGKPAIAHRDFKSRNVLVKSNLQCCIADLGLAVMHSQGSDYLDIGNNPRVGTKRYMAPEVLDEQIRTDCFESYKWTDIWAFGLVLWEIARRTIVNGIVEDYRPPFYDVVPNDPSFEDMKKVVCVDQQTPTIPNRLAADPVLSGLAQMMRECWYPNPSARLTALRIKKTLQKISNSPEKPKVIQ
Summary of the method: as §1

WNK1 = target: T3, WNK1 (Homo sapiens, UniProt Q9H4A3)
T3 construct: purchased Reaction Biology Corp
Summary of the method: as §1

HIPK3 = target: T4, HIPK3 (Homo sapiens, UniProt Q9H422)
T4 construct: purchased Reaction Biology Corp
Summary of the method: as §1

MLCK/MYLK = target: T5, MLCK/MYLK (Homo sapiens, UniProt Q15746)
T5 construct: purchased Reaction Biology Corp
Summary of the method: as §1

BRK = target: T6, BRK (Homo sapiens, UniProt Q13882)
T6 construct: purchased Reaction Biology Corp
T6 sequence (Q13882 whole entry): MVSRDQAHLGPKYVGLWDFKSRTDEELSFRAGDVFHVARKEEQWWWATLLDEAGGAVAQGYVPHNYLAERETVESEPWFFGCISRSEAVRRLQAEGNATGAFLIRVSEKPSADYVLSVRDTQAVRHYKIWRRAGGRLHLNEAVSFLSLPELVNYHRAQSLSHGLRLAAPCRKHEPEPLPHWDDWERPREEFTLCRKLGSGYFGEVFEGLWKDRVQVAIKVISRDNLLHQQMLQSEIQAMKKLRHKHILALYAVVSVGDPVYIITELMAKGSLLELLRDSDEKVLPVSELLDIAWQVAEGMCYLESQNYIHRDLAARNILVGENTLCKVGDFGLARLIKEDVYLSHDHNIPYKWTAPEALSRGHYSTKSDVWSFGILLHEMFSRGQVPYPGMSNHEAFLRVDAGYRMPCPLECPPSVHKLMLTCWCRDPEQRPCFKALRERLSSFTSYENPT
Summary of the method: as §1

MEK1 = target: T7, MEK1 (Homo sapiens, UniProt Q02750)
T7 construct: purchased Reaction Biology Corp
Summary of the method: as §1

TYK1/LTK = target: T8, TYK1/LTK (Homo sapiens, UniProt P29376)
T8 construct: purchased Reaction Biology Corp
Summary of the method: as §1

TRKA = target: T9, TRKA (Homo sapiens, UniProt P04629)
T9 construct: purchased Reaction Biology Corp
T9 sequence (P04629 33-796): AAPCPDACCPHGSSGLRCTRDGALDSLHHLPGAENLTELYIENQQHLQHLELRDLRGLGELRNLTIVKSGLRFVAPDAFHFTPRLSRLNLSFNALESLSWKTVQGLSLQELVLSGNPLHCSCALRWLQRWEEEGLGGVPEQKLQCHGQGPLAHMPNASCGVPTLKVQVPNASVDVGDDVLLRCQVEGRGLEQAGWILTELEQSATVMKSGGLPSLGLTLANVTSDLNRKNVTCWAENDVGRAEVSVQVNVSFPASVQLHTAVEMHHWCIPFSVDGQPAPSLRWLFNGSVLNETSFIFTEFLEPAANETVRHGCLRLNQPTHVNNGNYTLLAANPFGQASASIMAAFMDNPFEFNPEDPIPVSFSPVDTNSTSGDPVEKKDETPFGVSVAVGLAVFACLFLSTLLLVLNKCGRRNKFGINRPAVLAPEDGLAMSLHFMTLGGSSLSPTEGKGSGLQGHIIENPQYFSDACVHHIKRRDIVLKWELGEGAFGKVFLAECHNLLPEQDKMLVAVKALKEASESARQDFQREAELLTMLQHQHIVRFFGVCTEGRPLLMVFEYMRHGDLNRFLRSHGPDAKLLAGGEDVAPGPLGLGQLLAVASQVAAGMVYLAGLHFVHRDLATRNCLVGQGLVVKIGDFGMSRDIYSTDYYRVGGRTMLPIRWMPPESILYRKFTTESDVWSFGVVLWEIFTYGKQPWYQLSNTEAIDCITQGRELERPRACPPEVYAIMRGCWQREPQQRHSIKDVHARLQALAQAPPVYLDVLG
Summary of the method: as §1

ABL1 = target: T10, ABL1 (Homo sapiens, UniProt P00519)
T10 construct: purchased Reaction Biology Corp
T10 sequence (P00519 whole entry): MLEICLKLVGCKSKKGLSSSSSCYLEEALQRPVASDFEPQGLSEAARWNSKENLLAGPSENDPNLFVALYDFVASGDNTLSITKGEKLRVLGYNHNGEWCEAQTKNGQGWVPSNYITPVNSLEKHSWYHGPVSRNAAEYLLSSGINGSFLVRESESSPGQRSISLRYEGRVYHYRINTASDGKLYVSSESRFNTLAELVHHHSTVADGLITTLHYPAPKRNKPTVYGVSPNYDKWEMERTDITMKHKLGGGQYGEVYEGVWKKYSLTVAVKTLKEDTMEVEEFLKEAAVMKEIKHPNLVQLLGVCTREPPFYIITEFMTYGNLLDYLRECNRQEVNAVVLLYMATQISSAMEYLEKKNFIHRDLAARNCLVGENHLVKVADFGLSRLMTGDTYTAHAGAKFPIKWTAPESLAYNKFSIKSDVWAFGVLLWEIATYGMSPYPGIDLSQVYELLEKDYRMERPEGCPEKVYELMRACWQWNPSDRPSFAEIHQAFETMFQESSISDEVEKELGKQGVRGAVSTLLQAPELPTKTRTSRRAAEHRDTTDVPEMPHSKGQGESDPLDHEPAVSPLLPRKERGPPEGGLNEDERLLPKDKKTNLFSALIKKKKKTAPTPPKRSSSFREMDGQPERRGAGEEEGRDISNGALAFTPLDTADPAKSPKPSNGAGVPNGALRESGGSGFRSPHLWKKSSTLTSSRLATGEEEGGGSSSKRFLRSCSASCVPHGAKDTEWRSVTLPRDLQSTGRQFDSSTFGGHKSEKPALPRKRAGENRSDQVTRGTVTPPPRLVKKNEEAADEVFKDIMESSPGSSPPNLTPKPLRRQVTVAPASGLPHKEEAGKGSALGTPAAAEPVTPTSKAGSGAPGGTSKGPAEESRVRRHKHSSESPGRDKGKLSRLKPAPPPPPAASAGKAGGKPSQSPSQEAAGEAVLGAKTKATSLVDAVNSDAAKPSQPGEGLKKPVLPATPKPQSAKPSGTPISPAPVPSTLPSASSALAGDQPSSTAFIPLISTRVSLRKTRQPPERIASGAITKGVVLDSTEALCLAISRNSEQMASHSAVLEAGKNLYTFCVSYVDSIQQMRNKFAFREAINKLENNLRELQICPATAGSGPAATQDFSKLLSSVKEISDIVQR
Summary of the method: as §1

CAMK2g = target: T11, CAMK2g (Homo sapiens, UniProt Q13555)
T11 construct: purchased Reaction Biology Corp
T11 sequence (Q13555 whole entry): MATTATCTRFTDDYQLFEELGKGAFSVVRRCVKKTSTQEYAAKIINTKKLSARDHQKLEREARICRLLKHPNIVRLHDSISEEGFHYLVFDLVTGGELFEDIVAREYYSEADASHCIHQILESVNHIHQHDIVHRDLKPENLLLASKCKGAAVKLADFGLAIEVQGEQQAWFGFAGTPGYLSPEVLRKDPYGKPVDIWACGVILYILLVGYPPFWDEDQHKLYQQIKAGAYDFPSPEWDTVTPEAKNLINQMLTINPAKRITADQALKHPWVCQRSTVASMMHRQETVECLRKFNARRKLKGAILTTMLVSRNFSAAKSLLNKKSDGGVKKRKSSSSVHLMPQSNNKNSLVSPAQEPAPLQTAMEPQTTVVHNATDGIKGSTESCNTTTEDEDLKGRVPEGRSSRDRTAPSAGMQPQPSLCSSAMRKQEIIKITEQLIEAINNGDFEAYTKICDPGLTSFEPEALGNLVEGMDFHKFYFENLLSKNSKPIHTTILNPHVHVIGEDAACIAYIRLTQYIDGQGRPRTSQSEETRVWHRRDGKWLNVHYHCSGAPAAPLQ
Summary of the method: as §1

PLK3 = target: T12, PLK3 (Homo sapiens, UniProt Q9H4B4)
T12 construct: purchased Reaction Biology Corp
T12 sequence (Q9H4B4 whole entry): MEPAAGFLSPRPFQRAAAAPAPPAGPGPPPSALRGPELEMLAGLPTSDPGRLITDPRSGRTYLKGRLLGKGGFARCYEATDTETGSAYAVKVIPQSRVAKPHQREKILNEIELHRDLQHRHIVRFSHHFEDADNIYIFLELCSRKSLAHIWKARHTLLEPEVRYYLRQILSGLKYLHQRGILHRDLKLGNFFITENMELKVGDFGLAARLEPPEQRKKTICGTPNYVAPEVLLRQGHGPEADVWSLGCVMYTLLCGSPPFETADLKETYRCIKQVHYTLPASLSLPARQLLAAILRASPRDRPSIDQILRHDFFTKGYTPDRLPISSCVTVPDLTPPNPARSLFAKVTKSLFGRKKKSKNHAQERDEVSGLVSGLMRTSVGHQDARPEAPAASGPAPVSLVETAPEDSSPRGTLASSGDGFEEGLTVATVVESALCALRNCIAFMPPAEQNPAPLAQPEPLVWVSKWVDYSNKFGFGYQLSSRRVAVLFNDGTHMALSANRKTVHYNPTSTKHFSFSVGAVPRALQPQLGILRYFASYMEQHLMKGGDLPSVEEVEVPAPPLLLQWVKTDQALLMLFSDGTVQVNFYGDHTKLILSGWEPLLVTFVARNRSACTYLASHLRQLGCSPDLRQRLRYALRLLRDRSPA
Summary of the method: as §1

CDK4/cyclin D3 = target: T13, CDK4/cyclin D3 (Homo sapiens, UniProt P11802)
T13 construct: purchased Reaction Biology Corp
T13 sequence (P11802 whole entry): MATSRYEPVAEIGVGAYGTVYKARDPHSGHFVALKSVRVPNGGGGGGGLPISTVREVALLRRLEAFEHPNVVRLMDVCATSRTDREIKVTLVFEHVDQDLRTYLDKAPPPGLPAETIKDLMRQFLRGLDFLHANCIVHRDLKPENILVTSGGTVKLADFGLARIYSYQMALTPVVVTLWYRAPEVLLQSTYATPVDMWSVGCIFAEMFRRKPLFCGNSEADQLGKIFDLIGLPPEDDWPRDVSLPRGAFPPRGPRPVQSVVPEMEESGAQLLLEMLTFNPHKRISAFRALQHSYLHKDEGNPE
T13 sequence (P30281 whole entry partner): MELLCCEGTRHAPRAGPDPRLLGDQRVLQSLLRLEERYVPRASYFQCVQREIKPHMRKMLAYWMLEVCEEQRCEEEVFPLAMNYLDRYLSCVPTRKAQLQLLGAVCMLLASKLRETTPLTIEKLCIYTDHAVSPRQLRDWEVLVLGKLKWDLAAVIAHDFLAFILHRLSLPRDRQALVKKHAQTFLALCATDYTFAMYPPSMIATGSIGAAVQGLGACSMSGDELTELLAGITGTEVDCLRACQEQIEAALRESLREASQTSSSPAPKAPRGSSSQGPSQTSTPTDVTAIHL
Summary of the method: as §1

PLK4/SAK = target: T14, PLK4/SAK (Homo sapiens, UniProt O00444)
T14 construct: purchased Reaction Biology Corp
T14 sequence (O00444 1-970): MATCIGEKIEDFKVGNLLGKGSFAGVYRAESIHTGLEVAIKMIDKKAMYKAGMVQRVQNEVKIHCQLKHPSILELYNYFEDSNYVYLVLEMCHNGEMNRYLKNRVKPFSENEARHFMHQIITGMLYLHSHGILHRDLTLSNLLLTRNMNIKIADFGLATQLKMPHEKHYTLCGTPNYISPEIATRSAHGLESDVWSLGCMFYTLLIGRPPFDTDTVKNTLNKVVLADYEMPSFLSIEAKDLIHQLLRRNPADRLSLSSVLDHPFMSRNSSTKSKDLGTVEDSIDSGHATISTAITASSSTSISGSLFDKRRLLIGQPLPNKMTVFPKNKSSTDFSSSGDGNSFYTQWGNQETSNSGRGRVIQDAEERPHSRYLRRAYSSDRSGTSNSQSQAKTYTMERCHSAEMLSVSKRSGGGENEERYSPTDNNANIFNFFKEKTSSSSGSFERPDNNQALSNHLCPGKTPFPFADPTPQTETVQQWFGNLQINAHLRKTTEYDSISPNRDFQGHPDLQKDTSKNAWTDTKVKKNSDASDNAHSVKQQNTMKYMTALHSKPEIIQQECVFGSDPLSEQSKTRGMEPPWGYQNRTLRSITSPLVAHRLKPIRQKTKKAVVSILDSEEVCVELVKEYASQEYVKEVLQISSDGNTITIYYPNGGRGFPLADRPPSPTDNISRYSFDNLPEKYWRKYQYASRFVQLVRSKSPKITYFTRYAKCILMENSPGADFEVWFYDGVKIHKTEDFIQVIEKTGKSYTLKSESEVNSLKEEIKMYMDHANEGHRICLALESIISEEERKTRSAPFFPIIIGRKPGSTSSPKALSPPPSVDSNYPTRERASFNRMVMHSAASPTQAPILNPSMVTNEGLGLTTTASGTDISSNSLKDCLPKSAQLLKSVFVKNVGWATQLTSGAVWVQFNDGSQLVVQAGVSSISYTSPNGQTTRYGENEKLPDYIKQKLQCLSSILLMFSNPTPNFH
Summary of the method: as §1

PHKg1 = target: T15, PHKg1 (Homo sapiens, UniProt Q16816)
T15 construct: purchased Reaction Biology Corp
T15 sequence (Q16816 whole entry): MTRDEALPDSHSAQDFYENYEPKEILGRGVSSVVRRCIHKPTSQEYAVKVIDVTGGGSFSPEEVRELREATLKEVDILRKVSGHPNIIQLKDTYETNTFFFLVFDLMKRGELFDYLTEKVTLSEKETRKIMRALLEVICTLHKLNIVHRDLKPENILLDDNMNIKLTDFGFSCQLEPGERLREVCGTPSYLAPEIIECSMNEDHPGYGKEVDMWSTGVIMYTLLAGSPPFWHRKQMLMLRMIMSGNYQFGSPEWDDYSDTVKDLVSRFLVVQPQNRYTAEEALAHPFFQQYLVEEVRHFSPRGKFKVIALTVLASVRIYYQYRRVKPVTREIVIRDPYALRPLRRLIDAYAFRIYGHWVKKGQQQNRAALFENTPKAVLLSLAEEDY
Summary of the method: as §1

[1] = read-out: % Enzyme Activity (relative to DMSO controls) AVG
[2] = read-out: % Enzyme Activity (relative to DMSO controls) Data 1
[3] = read-out: % Enzyme Activity (relative to DMSO controls) Data 2

`CC(C)(C)C(=O)N1N=CC[C@H]1c1ccccc1` [GSK′963] was tested, and the remaining activity at 10 µM (MST2/STK3; [1]) was 107%, the remaining activity at 10 µM (MST2/STK3; [2]) was 105% and the remaining activity at 10 µM (MST2/STK3; [3]) was 109%. The remaining activity at 10 µM (ALK1/ACVRL1; [1]) was 97.7%, the remaining activity at 10 µM (ALK1/ACVRL1; [2]) was 104% and the remaining activity at 10 µM (ALK1/ACVRL1; [3]) was 91.2%. For the same compound, the remaining activity at 10 µM (WNK1; [1]) was 81.7%, the remaining activity at 10 µM (WNK1; [2]) was 78.3% and the remaining activity at 10 µM (WNK1; [3]) was 85.1%. For the same compound, the remaining activity at 10 µM (HIPK3; [1]) was 100%, the remaining activity at 10 µM (HIPK3; [2]) was 100% and the remaining activity at 10 µM (HIPK3; [3]) was 101%. It also gave a remaining activity at 10 µM (MLCK/MYLK; [1]) of 96.1%, a remaining activity at 10 µM (MLCK/MYLK; [2]) of 97.1% and a remaining activity at 10 µM (MLCK/MYLK; [3]) of 95.2%. It also gave a remaining activity at 10 µM (BRK; [1]) of 93.2%, a remaining activity at 10 µM (BRK; [2]) of 96.2% and a remaining activity at 10 µM (BRK; [3]) of 90.2%. For the same compound, the remaining activity at 10 µM (MEK1; [1]) was 103%, the remaining activity at 10 µM (MEK1; [2]) was 103% and the remaining activity at 10 µM (MEK1; [3]) was 103%. For the same compound, the remaining activity at 10 µM (TYK1/LTK; [1]) was 104%, the remaining activity at 10 µM (TYK1/LTK; [2]) was 104% and the remaining activity at 10 µM (TYK1/LTK; [3]) was 105%. It also gave a remaining activity at 10 µM (TRKA; [1]) of 99.8%, a remaining activity at 10 µM (TRKA; [2]) of 98.2% and a remaining activity at 10 µM (TRKA; [3]) of 101%. The remaining activity at 10 µM (ABL1; [1]) was 99.3%, the remaining activity at 10 µM (ABL1; [2]) was 102% and the remaining activity at 10 µM (ABL1; [3]) was 96.9%. It also gave a remaining activity at 10 µM (CAMK2g; [1]) of 115%, a remaining activity at 10 µM (CAMK2g; [2]) of 112% and a remaining activity at 10 µM (CAMK2g; [3]) of 118%. It also gave a remaining activity at 10 µM (PLK3; [1]) of 92.5%, a remaining activity at 10 µM (PLK3; [2]) of 95.5% and a remaining activity at 10 µM (PLK3; [3]) of 89.5%. It also gave a remaining activity at 10 µM (CDK4/cyclin D3; [1]) of 96.2%, a remaining activity at 10 µM (CDK4/cyclin D3; [2]) of 98.3% and a remaining activity at 10 µM (CDK4/cyclin D3; [3]) of 94.1%. It also gave a remaining activity at 10 µM (PLK4/SAK; [1]) of 113%, a remaining activity at 10 µM (PLK4/SAK; [2]) of 114% and a remaining activity at 10 µM (PLK4/SAK; [3]) of 112%. The remaining activity at 10 µM (PHKg1; [1]) was 102%, the remaining activity at 10 µM (PHKg1; [2]) was 103% and the remaining activity at 10 µM (PHKg1; [3]) was 101%.
